Laboratory results taken from patent US20230372498A1, “PLK1 SELECTIVE DEGRADATION INDUCING COMPOUND” (UPPTHERA, priority 2020, published 2023).

Target: T1, PLK1 (Homo sapiens, UniProt P53350)
T1 construct: endogenous in cells; host or cells: HeLa
Experiment: PLK1 protein degradation in HeLa cells, Western blotting (PLK1/GAPDH ratio)
Format: cell-based
Settings: 6 hours compound incubation; for DC50: measured only if the grade of Dmax is A or B; for Dmax: thymidine block and release, 10 points three-fold from 3 μM, PLK1 to GAPDH ratio, read-out: Dmax
Outline: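 Thymidine-synchronised HeLa cells (2 mM, 24 h) released 4 h into complete medium, then treated 6 h with compound in 10-point 3-fold dilutions from 3 μM. RIPA lysates (15 μg protein) run on SDS-PAGE; PLK1 Western blot normalised to GAPDH.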

T1 sequence (P53350 whole entry): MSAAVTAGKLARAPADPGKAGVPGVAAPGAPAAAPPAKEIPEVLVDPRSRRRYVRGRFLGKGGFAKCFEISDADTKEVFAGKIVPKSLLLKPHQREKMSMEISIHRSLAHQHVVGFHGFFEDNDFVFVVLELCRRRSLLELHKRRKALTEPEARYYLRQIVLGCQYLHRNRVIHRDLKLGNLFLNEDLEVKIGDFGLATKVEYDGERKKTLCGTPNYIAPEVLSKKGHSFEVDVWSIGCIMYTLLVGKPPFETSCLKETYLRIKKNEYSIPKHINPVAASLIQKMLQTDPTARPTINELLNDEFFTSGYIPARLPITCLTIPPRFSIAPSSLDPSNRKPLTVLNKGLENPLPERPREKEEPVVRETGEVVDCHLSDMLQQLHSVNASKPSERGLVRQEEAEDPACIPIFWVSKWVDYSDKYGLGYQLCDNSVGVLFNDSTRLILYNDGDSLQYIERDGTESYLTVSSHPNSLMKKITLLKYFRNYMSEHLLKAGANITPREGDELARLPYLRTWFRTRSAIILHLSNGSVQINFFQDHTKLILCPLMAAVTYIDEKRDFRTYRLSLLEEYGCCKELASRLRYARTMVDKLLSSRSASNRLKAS

DC50 [nM] | Dmax [%] | SMILES
≤ 50 | ≥ 80 | COc1cc(C(=O)N[C@H]2CCN(C(=O)CCC(=O)N3CCN(c4cccc5c4C(=O)N(C4CCC(=O)NC4=O)C5=O)CC3)C2)ccc1Nc1ncc2c(n1)N(C1CCCC1)CC(F)(F)C(=O)N2C (stereo partly drawn) [Compound 141, 4-((9-cyclopentyl-7,7-difluoro-5-methyl-6-oxo-6,7,8,9-tetrahydro-5H-pyrimido[4,5-b][1,4]diazepin-2-yl)amino)-N-((3S)-1-(4-(4-(2-(2,6-dioxopiperidin-3-yl)-1,3-dioxoisoindolin-4-yl)piperazin-1-yl)-4-oxobutanoyl)pyrrolidin-3-yl)-3-methoxybenzamide]
≤ 500 | 60 to 80 | CN1C(=O)C(F)(F)CN(C2CCCC2)c2nc(Nc3ccc(C(=O)N[C@H]4CCN(C(=O)CCC(=O)N5CCN(c6cccc7c6C(=O)N(C6CCC(=O)NC6=O)C7=O)CC5)C4)cc3)ncc21 (stereo partly drawn) [Compound 142, 4-((9-cyclopentyl-7,7-difluoro-5-methyl-6-oxo-6,7,8,9-tetrahydro-5H-pyrimido[4,5-b][1,4]diazepin-2-yl)amino)-N-((3S)-1-(4-(4-(2-(2,6-dioxopiperidin-3-yl)-1,3-dioxoisoindolin-4-yl)piperazin-1-yl)-4-oxobutanoyl)pyrrolidin-3-yl)benzamide]
≤ 500 | 60 to 80 | COc1cc(C(=O)N[C@H]2CCN(C(=O)CCCC(=O)N3CCN(c4cccc5c4C(=O)N(C4CCC(=O)NC4=O)C5=O)CC3)C2)c(F)cc1Nc1ncc2c(n1)N(C1CCCC1)CC(F)(F)C(=O)N2C (stereo partly drawn) [Compound 143, 4-((9-cyclopentyl-7,7-difluoro-5-methyl-6-oxo-6,7,8,9-tetrahydro-5H-pyrimido[4,5-b][1,4]diazepin-2-yl)amino)-N-((3S)-1-(5-(4-(2-(2,6-dioxopiperidin-3-yl)-1,3-dioxoisoindolin-4-yl)piperazin-1-yl)-5-oxopentanoyl)pyrrolidin-3-yl)-2-fluoro-5-methoxybenzamide]
≤ 50 | ≥ 80 | COc1cc(C(=O)N[C@H]2CCN(C(=O)CCC(=O)N3CCN(c4ccc5c(c4)C(=O)N(C4CCC(=O)NC4=O)C5=O)CC3)C2)c(F)cc1Nc1ncc2c(n1)N(C1CCCC1)CC(F)(F)C(=O)N2C (stereo partly drawn) [Compound 144, 4-((9-cyclopentyl-7,7-difluoro-5-methyl-6-oxo-6,7,8,9-tetrahydro-5H-pyrimido[4,5-b][1,4]diazepin-2-yl)amino)-N-((3S)-1-(4-(4-(2-(2,6-dioxopiperidin-3-yl)-1,3-dioxoisoindolin-5-yl)piperazin-1-yl)-4-oxobutanoyl)pyrrolidin-3-yl)-2-fluoro-5-methoxybenzamide]
> 500 | 60 to 80 | COc1cc(C(=O)N[C@H]2CCN(C(=O)CCC(=O)N3CCN(c4ccc5c(c4)C(=O)N(C4CCC(=O)NC4=O)C5=O)CC3)C2)ccc1Nc1ncc2c(n1)N(C1CCCC1)CC(F)(F)C(=O)N2C (stereo partly drawn) [Compound 145, 4-((9-cyclopentyl-7,7-difluoro-5-methyl-6-oxo-6,7,8,9-tetrahydro-5H-pyrimido[4,5-b][1,4]diazepin-2-yl)amino)-N-((3S)-1-(4-(4-(2-(2,6-dioxopiperidin-3-yl)-1,3-dioxoisoindolin-5-yl)piperazin-1-yl)-4-oxobutanoyl)pyrrolidin-3-yl)-3-methoxybenzamide]
– | < 60 | CN1C(=O)C(F)(F)CN(C2CCCC2)c2nc(Nc3ccc(C(=O)N[C@H]4CCN(C(=O)CCC(=O)N5CCN(c6ccc7c(c6)C(=O)N(C6CCC(=O)NC6=O)C7=O)CC5)C4)cc3)ncc21 (stereo partly drawn) [Compound 146, 4-((9-cyclopentyl-7,7-difluoro-5-methyl-6-oxo-6,7,8,9-tetrahydro-5H-pyrimido[4,5-b][1,4]diazepin-2-yl)amino)-N-((3S)-1-(4-(4-(2-(2,6-dioxopiperidin-3-yl)-1,3-dioxoisoindolin-5-yl)piperazin-1-yl)-4-oxobutanoyl)pyrrolidin-3-yl)benzamide]
